US7101906B2, “2,3,4-substituted cyclopentanones as therapeutic agents” (Allergan, Inc., priority 2004, dated 2006)

Experiments:
hEP4/Gqs5 = target: T1, hEP4/Gqs5 (Homo sapiens, UniProt P35408); experiment: FLIPR calcium signal, hEP4/Gqs5; format: cell-based; settings: HEK-293(EBNA) cells, read-out: Functional EC50 (nM) HEP4
T1 construct: expressed in transfected cells
Protocol: (§1) HEK-293(EBNA) cells, stably expressing one type or subtype of recombinant human prostaglandin receptors (prostaglandin receptors expressed: hDP/Gqs5; hEP1; hEP2/Gqs5; hEP3A/Gqi5; hEP4/Gqs5; hFP; hIP; hTP), were cultured in 100 mm culture dishes in high-glucose DMEM medium containing 10% fetal bovine serum, 2 mM 1-glutamine, 250 μg/ml geneticin (G418) and 200 μg/ml hygromycin B as selection markers, and 100 units/ml penicillin G, 100 μg/ml streptomycin and 0.25 μg/ml amphotericin B.
(§2) Cells were seeded at a density of 5×10^4 cells per well in Biocoat® Poly-D-lysine-coated black-wall, clear-bottom 96-well plates (Becton-Dickinson) and allowed to attach overnight in an incubator at 37° C. Cells were then washed two times with HBSS-HEPES buffer (Hanks Balanced Salt Solution without bicarbonate and phenol red, 20 mM HEPES, pH 7.4) using a Denley Cellwash plate washer (Labsystems). After 45 minutes of dye-loading in the dark, using the calcium-sensitive dye Fluo-4 AM at a final concentration of 2 μM, plates were washed four times with HBSS-HEPES buffer to remove excess dye leaving 100 μl in each well. Plates were re-equilibrated to 37° C. for a few minutes.
(§3) Cells were excited with an Argon laser at 488 nm, and emission was measured through a 510–570 nm bandwidth emission filter (FLIPR™, Molecular Devices, Sunnyvale, Calif.). Drug solution was added in a 50 μl volume to each well to give the desired final concentration. The peak increase in fluorescence intensity was recorded for each well. On each plate, four wells each served as negative (HBSS-HEPES buffer) and positive controls (standard agonists: BW245C (hDP); PGE2 (hEP1; hEP2/Gqs5; hEP3A/Gqi5; hEP4/Gqs5); PGF2α (hFP); carbacyclin (hIP); U-46619 (hTP), depending on receptor). The peak fluorescence change in each drug-containing well was then expressed relative to the controls.
(§4) Compounds were tested in a high-throughput (HTS) or concentration-response (CoRe) format. In the HTS format, forty-four compounds per plate were examined in duplicates at a concentration of 10^−5 M. To generate concentration-response curves, four compounds per plate were tested in duplicates in a concentration range between 10^−5 and 10^−11 M. The duplicate values were averaged. In either, HTS or CoRe format each compound was tested on at least 3 separate plates using cells from different passages to give an n≧3.

hTP = target: T2, hTP (Homo sapiens, UniProt P21731); experiment: FLIPR calcium signal, hTP; format: cell-based; settings: HEK-293(EBNA) cells, read-out: Functional EC50 (nM) HTP
T2 construct: expressed in transfected cells
T2 sequence (P21731 1-343): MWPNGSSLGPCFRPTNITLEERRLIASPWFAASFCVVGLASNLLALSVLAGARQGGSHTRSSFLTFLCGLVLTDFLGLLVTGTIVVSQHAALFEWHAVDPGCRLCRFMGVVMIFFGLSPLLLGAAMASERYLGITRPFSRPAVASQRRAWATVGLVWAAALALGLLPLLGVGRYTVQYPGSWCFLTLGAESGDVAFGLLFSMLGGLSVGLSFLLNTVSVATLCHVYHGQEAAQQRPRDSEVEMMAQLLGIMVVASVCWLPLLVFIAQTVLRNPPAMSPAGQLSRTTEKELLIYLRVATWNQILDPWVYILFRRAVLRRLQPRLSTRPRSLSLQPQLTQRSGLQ
Protocol: as §1, §2, §3, §4

hEP1 = target: T3, hEP1 (Homo sapiens, UniProt P34995); experiment: FLIPR calcium signal, hEP1; format: cell-based; settings: HEK-293(EBNA) cells, read-out: Functional EC50 (nM) HEP1
T3 construct: expressed in transfected cells
T3 sequence (P34995 1-402): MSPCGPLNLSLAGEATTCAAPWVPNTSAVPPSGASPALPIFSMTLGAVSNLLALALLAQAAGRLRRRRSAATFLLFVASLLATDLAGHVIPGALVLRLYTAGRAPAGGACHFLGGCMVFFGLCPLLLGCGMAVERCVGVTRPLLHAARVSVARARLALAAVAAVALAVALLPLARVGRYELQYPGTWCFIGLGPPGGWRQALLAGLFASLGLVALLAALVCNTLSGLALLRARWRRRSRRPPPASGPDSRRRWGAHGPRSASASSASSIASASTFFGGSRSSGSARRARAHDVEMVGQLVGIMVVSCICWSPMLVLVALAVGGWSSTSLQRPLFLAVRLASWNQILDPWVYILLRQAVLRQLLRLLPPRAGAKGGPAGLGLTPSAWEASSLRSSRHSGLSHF
Protocol: as §1, §2, §3, §4

hEP3A/Gqi5 = target: T4, hEP3A/Gqi5 (Homo sapiens, UniProt P43115); experiment: FLIPR calcium signal, hEP3A/Gqi5; format: cell-based; settings: HEK-293(EBNA) cells, read-out: Functional EC50 (nM) HEP3A
T4 construct: expressed in transfected cells
T4 sequence (P43115 1-390): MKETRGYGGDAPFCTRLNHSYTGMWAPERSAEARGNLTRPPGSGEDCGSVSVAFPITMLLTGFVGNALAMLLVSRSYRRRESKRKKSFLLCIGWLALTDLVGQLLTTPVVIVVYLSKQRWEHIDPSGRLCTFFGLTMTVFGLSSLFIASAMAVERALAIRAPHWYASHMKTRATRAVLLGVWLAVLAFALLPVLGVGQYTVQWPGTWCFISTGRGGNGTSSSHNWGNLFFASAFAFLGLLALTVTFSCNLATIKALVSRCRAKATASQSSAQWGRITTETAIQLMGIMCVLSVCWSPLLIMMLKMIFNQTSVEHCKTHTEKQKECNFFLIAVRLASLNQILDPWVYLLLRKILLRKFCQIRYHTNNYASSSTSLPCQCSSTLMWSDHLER
Protocol: as §1, §2, §3, §4

hEP2/Gqs5 = target: T5, hEP2/Gqs5 (Homo sapiens, UniProt P43116); experiment: FLIPR calcium signal, hEP2/Gqs5; format: cell-based; settings: HEK-293(EBNA) cells, read-out: Functional EC50 (nM) HEP2
T5 construct: expressed in transfected cells
Protocol: as §1, §2, §3
Compounds were tested in a high-throughput (HTS) or concentration-response (CoRe) format. […]

HEP4 = target: T6, HEP4 (Homo sapiens, UniProt P35408); experiment: Radioligand binding, EP4 receptor; settings: competition vs [3H]PGE2 5 nM, HEK-293 cell membranes
T6 construct: expressed in transfected cells; membrane fraction
Protocol: (§5) HEK-293 cells stably expressing the human or feline FP receptor, or EP1, EP2, or EP4 receptors were washed with TME buffer, scraped from the bottom of the flasks, and homogenized for 30 sec using a Brinkman PT 10/35 polytron. TME buffer was added to achieve a final 40 ml volume in the centrifuge tubes (the composition of TME is 100 mM TRIS base, 20 mM MgCl2, […]; 10N HCl is added to achieve a pH of 7.4).
(§6) The cell homogenate was centrifuged at 19000 r.p.m. for 20 min at 4° C. using a Beckman Ti-60 rotor. The resultant pellet was resuspended in TME buffer to give a final 1 mg/ml protein concentration, as determined by Biorad assay. Radioligand binding competition assays vs. [^3H-]17-phenyl PGF2α (5 nM) were performed in a 100 μl volume for 60 min. Binding reactions were started by adding plasma membrane fraction. The reaction was terminated by the addition of 4 ml ice-cold TRIS-HCl buffer and rapid filtration through glass fiber GF/B filters using a Brandel cell harvester. The filters were washed 3 times with ice-cold buffer and oven dried for one hour. Non-specific binding was determined with 10 uM unlabeled 17-phenyl PGF2α.
[^3H-] PGE2 (5 nM; specific activity 180 Ci mmol) was used as the radioligand for EP receptors. Binding studies employing EP1, EP2, EP3, EP4 were performed in duplicate in at least three separate experiments. A 200 μl assay volume was used. Incubations were for 60 min at 25° C. and were terminated by the addition of 4 ml of ice-cold 50 mM TRIS-HCl, followed by rapid filtration through Whatman GF/B filters and three additional 4 ml washes in a cell harvester (Brandel). Non-specific binding determined with 10^−5M of unlabeled PGE2.

HEP2 = target: T7, HEP2 (Homo sapiens, UniProt P43116); experiment: Radioligand binding, EP2 receptor; settings: competition vs [3H]PGE2 5 nM, HEK-293 cell membranes
T7 construct: expressed in transfected cells; membrane fraction
Protocol: as §5, §6
(§7) [^3H-] PGE2 (5 nM; specific activity 180 Ci mmol) was used as the radioligand for EP receptors. […] Non-specific binding determined with 10^−5M of unlabeled PGE2.

HEP3D = target: T8, HEP3D (Homo sapiens, UniProt P43115); experiment: Radioligand binding, EP3 receptor; settings: competition vs [3H]PGE2 5 nM
T8 sequence (P43115 1-374 isoform P43115-4): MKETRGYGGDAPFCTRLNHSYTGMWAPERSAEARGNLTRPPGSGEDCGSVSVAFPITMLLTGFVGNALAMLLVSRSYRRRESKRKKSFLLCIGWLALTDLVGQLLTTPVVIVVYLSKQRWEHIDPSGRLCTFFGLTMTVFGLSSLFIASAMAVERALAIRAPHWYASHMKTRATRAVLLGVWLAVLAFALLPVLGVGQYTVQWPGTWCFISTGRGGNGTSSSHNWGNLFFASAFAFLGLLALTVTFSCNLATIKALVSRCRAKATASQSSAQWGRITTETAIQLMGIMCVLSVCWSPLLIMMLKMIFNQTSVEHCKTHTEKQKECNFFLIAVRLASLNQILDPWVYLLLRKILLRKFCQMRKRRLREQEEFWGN
Protocol: as §5, §6, §7

T1 sequence (P35408 whole entry): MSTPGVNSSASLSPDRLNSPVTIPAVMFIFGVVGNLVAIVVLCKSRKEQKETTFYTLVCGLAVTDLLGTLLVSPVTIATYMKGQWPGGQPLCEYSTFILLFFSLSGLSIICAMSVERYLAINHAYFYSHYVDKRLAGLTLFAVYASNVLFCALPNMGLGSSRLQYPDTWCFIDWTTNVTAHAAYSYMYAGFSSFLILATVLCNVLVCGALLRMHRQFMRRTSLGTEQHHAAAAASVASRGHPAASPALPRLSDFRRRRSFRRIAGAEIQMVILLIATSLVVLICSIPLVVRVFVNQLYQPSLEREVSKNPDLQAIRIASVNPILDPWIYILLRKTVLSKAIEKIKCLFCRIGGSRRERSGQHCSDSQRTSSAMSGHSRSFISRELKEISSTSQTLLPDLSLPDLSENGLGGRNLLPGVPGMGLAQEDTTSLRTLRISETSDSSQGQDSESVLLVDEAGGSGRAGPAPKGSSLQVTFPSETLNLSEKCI
T6 sequence (P35408 whole entry): as above
T7 sequence (P43116 whole entry): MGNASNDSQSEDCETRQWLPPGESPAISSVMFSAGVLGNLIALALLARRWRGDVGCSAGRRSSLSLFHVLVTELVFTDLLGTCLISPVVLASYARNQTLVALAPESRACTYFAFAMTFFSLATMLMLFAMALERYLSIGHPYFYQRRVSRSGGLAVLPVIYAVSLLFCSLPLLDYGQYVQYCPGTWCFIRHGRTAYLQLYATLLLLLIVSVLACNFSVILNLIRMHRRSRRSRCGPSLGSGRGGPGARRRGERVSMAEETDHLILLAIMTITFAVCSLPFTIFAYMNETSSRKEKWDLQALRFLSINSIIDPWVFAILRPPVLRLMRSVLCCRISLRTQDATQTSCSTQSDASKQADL
T5 sequence (P43116 whole entry): as above

SMILES | EC50 (hEP4/Gqs5) | EC50 (hTP) | other results
COC(=O)CCC/C=C\C[C@H]1C(=O)C[C@@H](CO)[C@@H]1/C=C/C(O)CCc1sc2ccccc2c1Cl (stereo partly drawn) [drawing 30] | > 10000 nM |  | 
COC(=O)CCC/C=C\C[C@H]1C(=O)C[C@@H](CO)[C@@H]1/C=C/C(O)CCc1sc2ccccc2c1Cl (stereo partly drawn) [drawing 31] | > 10000 nM |  | 
O=C(O)CCC/C=C\C[C@H]1C(=O)C[C@@H](CO)[C@@H]1/C=C/C(O)CCc1sc2ccccc2c1Cl (stereo partly drawn) [drawing 32] | 1240 nM |  | 
O=C(O)CCC/C=C\C[C@H]1C(=O)C[C@@H](CO)[C@@H]1/C=C/C(O)CCc1sc2ccccc2c1Cl (stereo partly drawn) [drawing 33] | 1790 nM |  | 
COC(=O)CCC/C=C\C[C@H]1C(=O)C[C@@H](CO)[C@@H]1/C=C/C(O)Cc1cc2ccccc2s1 (stereo partly drawn) [drawing 34] | > 10000 nM | > 10000 nM | EC50 (hEP1): > 10000 nM
COC(=O)CCC/C=C\C[C@H]1C(=O)C[C@@H](CO)[C@@H]1/C=C/C(O)Cc1cc2ccccc2s1 (stereo partly drawn) [drawing 35] | > 10000 nM | > 10000 nM | EC50 (hEP3A/Gqi5): 9000 nM; EC50 (hEP2/Gqs5): > 10000 nM; EC50 (hEP1): > 10000 nM

Second part, led by results:

EC50 (hEP4/Gqs5) | EC50 (hTP) | SMILES | other results
515 nM |  | COC(=O)CCC/C=C\C[C@H]1C(=O)CC[C@@H]1/C=C/C(O)CCc1sc2ccccc2c1Cl (stereo partly drawn) [drawing 38] | 
862 nM | > 10000 nM | COC(=O)CCC/C=C\C[C@H]1C(=O)CC[C@@H]1/C=C/C(O)CCc1sc2ccccc2c1Cl (stereo partly drawn) [drawing 39] | 
11 nM |  | O=C(O)CCC/C=C\C[C@H]1C(=O)CC[C@@H]1/C=C/C(O)CCc1sc2ccccc2c1Cl (stereo partly drawn) [drawing 40] | IC50 (HEP4): 150 nM; IC50 (HEP2): > 10000 nM; IC50 (HEP3D): 6000 nM
25 nM | > 10000 nM | O=C(O)CCC/C=C\C[C@H]1C(=O)CC[C@@H]1/C=C/C(O)CCc1sc2ccccc2c1Cl (stereo partly drawn) [drawing 41] | IC50 (HEP4): 110 nM; IC50 (HEP3D): 3700 nM; EC50 (hEP3A/Gqi5): > 10000 nM
